Source: ChEMBL document CHEMBL4266050, “Metabolomics-Driven Discovery of Meroterpenoids from a Mussel-Derived Penicillium ubiquetum” (J Nat Prod, 2018)
Activity calls are given as the source filed them. The calls are words filed in the database; no cut-off is given here.

How the values were obtained:
KB [1] = experiment: Cytotoxicity against human KB cells at 50 uM by MTT assay; type: functional, cell-based
MCF7 [2] = experiment: Cytotoxicity against human MCF7 cells at 50 uM by MTT assay; type: functional, cell-based
KB [3] = experiment: Cytotoxicity against human KB cells by MTT assay; type: functional, cell-based
MCF7 [4] = experiment: Cytotoxicity against human MCF7 cells by MTT assay; type: functional, cell-based
[5] = Stability of the compound; type: physicochemical

Stability [5] | SMILES | Activity (KB [1]) | Activity (MCF7 [2]) | IC50 (KB [3]) | IC50 (MCF7 [4])
 | COC(=O)O[C@@H]1C=C2C(=CC(=O)OC2(C)C)[C@H](C)[C@@H]2C[C@@]3(C)C(=O)O[C@H]4O[C@@H](C)C(=O)[C@@H]([C@@]12C)[C@]43O | inactive | inactive |  | 
 | COC(=O)[C@@]12[C@@]3(C)[C@H]4C=C5C(=CC(=O)OC5(C)C)[C@H](C)[C@@H]3C[C@@]3(C)C(=O)O[C@@H](O[C@@H](C)[C@@]1(O)O4)[C@@]23O | inactive | inactive |  | 
 | COC(=O)O[C@@H]1C=C2C(=CC(=O)OC2(C)C)[C@H](C)[C@@H]2C[C@@]3(C)C(=O)O[C@H]4O[C@@H](C)C(=O)[C@H]([C@H]43)[C@@]12C | inactive | inactive |  | 
 | COC(=O)[C@]12[C@@H]3[C@H]4OC(=O)[C@]3(C)C[C@H]3[C@@H](C)C5=CC(=O)OC(C)(C)C5=C[C@@H](O[C@]1(O)[C@H](C)O4)[C@@]32C | inactive | inactive |  | 
 | COC(=O)[C@@]12[C@@H]3[C@H]4OC(=O)[C@]3(C)C[C@@H]3[C@]1(C)[C@@H](C=C1C(=CC(=O)OC1(C)C)[C@@]3(C)O)O[C@]2(O)[C@H](C)O4 | inactive | inactive |  | 
 | CC(=O)O[C@@]12CO[C@@H]1C[C@H](O)[C@@]1(C)C(=O)[C@H](O)C3=C(C)[C@@H](OC(=O)[C@H](O)[C@@H](NC(=O)OC(C)(C)C)c4ccccc4)C[C@@](O)([C@@H](OC(=O)c4ccccc4)[C@H]21)C3(C)C [DOCETAXEL ANHYDROUS] |  |  | 38 nM | 10.3 nM
 | COC(=O)[C@@]1(C)O[C@H]2OC(=O)[C@@H]3[C@H]2[C@@](C)(C[C@H]2C(C)=C4CC(=O)OC(C)(C)C4=CC[C@]32C)C1=O | inactive | inactive |  | 
 | COC(=O)[C@]12C(=O)[C@H](C)O[C@@H]3OC(=O)[C@](C)(C[C@H]4C(C)=C5CC(=O)OC(C)(C)C5=CC[C@@]41C)[C@@H]32 | inactive | inactive |  | 
Unstable | COC(=O)[C@]12C(=O)[C@H](C)O[C@@H]3OC(=O)[C@](C)(C[C@H]4[C@@H](C)C5=CC(=O)OC(C)(C)C5=C[C@@H](O)[C@@]41C)[C@@H]32 |  |  |  | 
 | COC(=O)[C@]12[C@@H]3[C@H]4OC(=O)[C@]3(C)CC3=C(C)C5=C(C[C@@H](O[C@]1(O)[C@H](C)O4)[C@@]32C)C(C)(C)OC(=O)C5 | inactive | inactive |  | 
